Like-named read-outs stand apart in the source and are kept apart here.
How the values were obtained:
human Kv4.3 = biological target: T1, human Kv4.3 (Homo sapiens, UniProt Q9UK17); experiment: C. elegans based high-throughput screen for Kv4.3 modulators (pharynx pumping, Calcein AM uptake), strain UG1755; assay type: in vivo; details: for Ratio N2/Kv4.3: EC50 on N2 divided by EC50 on the Kv4.3 expressing strain, cut-off 1.8; for EC50: transgenic strain expressing human Kv4.3, read-out: EC50 (μM) Kv4.3 worm
T1 construct: expressed in transfected cells; host or cells: transgenic C. elegans strain UG1755 (plasmid pGV8 integrated; expression in the pharynx)
T1 sequence (Q9UK17 1-655): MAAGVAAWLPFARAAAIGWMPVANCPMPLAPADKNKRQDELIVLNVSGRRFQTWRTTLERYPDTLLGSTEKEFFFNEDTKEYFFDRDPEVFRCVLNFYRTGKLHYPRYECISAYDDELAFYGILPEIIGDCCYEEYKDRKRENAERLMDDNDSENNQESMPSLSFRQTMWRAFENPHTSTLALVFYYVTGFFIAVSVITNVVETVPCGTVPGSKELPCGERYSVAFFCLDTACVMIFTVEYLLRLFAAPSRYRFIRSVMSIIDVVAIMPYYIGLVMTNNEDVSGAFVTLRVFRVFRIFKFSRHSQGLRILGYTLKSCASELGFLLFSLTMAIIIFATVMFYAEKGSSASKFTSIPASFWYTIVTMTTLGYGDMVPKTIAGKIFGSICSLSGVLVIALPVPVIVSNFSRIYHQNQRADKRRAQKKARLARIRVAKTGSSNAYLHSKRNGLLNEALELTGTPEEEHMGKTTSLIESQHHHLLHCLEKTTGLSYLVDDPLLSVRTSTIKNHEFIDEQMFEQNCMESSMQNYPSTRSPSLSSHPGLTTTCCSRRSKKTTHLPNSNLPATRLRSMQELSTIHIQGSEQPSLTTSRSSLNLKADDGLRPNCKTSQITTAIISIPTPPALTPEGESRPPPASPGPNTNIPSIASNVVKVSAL
From the text: A C. elegans based high-throughput screen for Kv4.3 modulators has been used to establish an in vivo SAR (structure-activity relationships: the effect of chemical structure on biological activity) on Kv4.3 for the compounds according to the present invention.
This assay has employed a stable transgenic C. elegans strain that functionally expressed human Kv4.3 in the pharynx and a visible selection GFP maker in body-wall muscle.
The method to describe the construction of a transgenic C. elegans strain expressing human Kv4.3 has been described in WO 03/097682. Briefly, the actual used strain UG1755 has been generated by microinjection into the gonad of a wild-type strain N2 with a mix of 5 ng/μl plasmid pGV8 (human Kv4.3), 20 ng/μl pDW2821 (GFP-marker) and 40 ng/μl genomic C. elegans DNA. Transgenic animals have been isolated and submitted to integration of the extra-chromosomal array into the genome of C. elegans. A line with 50% transmission of the functional expressed human Kv4.3 has been mutagenized with gamma irradiation using a Cobalt source. About 12000 F2 animals have been singled out and their progeny has been screened for the 100% transmission of the GFP marker. Lines with 100% transmission of GFP have been considered as potentially integrated. These lines have been further tested and out-crossed with N2 strain two-times. All lines obtained have been tested for viability, GFP and human Kv4.3 expression. At the end of a selection process, UG1755 was identified as most suitable C. elegans strain amenable to high throughput screening (HTS). This stable strain has expressed human Kv4.3 as confirmed by electropharyngeograms (EPG) analysis. The method has been described in WO 03/097682. Briefly, dissected pharynxes of UG1755 C. elegans animals have been prepared and Electropharyngeograms (EPGs) have been recorded using an Axopatch-1D amplifier (Axon instruments). Pharynxes have been equilibrated for about 2 minutes in the bath solution (Dent's saline with 0.5% DMSO) until stable EPG recordings have been seen. Compound solution (DMSO or 100 μM Flecamide) has been added to the bath solution. The number of ultra short EPGs (10-20 ms) and normal EPGs (100-200 ms) has been analyzed and given as ratio in percentage. […] In addition standard qRT-PCR confirmed the presence of the human Kv4.3 transgene in UG1755 as well as human Kv4.3 protein has been detected with the human Kv4.3 antibody P 0358 in the pharynx of UG1755 animals. […]
Introducing the human Kv4.3 channel into the C. elegans pharynx influences the C. elegans action potential in a characteristic fashion. […] The pumping end-point can be technically translated into a high-throughput read-out by the use of a pro-fluorescent dye. […]

[1] = system: C. elegans wild-type strain N2; experiment: Same pumping assay format using C. elegans wild-type strain N2; assay type: in vivo; details: read-out: EC50 (μM) N2 worm
From the text: The screening of the compounds according to the present invention has been performed in the C. elegans based high-throughput screen for Kv4.3 modulators described above. The method for testing the activity on human Kv4.3 of the compounds according to the invention with C. elegans strains expressing human Kv4.3 for their activity is the same as the method described in WO 03/097682. The method for testing the compounds on wild-type C. elegans strains not expressing human Kv4.3 is the same as the method described in WO 00/63427. Briefly, UG1755 animals have been grown in large numbers and staged young adults (no or only few eggs inside the uterus) have been harvested on the day of screening. Approximately 125 animals in 80 μl buffer have been dispensed per well of a “U” shaped 96-well compound plate. The compound plate contained already compound material at a final concentration of 30 μM in 0.3% DMSO. […] After another four hours of incubation at 20° C., the drinking of C. elegans animals (or the “reaction” as measured by the uptake of CAM) has been stopped by adding 10 μl of a 60 μM ivermectin solution. The fluorescence intensity (counts per second) has been measured 40 minutes after adding ivermectin with the Wallac plate reader at a wavelength of 535 nm (after excitation at 485 nm). […]

Row | Compound | Ratio N2/Kv4.3 (human Kv4.3) | EC50 (human Kv4.3) [µM] | EC50 [1] [µM] | EC50 ([1]; Caenorhabditis elegans) [µM]
1 | 5-chloro-benzofuran-2- carboxylic acid [3- (10,11-dihydro- dibenzo[a,d]cyclohepten- 5-ylidene)-propyl]- methyl-amide [Compound 5] | 5.7 | 4.2 | 24 | –
2 | C[C@@H](NC(=O)c1cc2cc(Cl)ccc2o1)c1ccc([N+](=O)[O-])cc1 [Compound 1, 5-chloro-benzofuran-2-carboxylic acid [(R)-1-(4-nitro-phenyl)-ethyl]-amide] | >4.9 | 6.1 | – | > 30

Source: patent publication US20080039442A1, “Compounds With Kv4 Ion Channel Activity” (Devgen NV, priority 2004, published 2008)
